Data on 19 compounds can be found in patent US20040176320A1, “Use of at least one glycoinhibitor substance” (priority 2001, published 2004).

“Also recorded” adds a separate entry of the source.

In assay [1] the test system is β-galactosidase from jack beans. The experiment in a line: Inhibition of β-galactosidase cleavage of Galβ4GlcNAcβ3Galβ4Glc. The conditions noted are these: 55 mM inhibitor, 100 mU enzyme, 50 mM sodium citrate pH 4.0, 37° C., 8 h; no unreacted substrate without inhibitor. Format: biochemical. The source says: Inhibition of β-galactosidase enzyme by D-galactono-1,4-lactone (Sigma, St Louis, USA). β-galactosidase from jack beans (EC 3.2.1.23, Sigma, St Louis, USA) is used to cleave terminal galactose from model oligosaccharide Galβ4GlcNAcβ3Galβ4Glc (Sigma, St Louis, USA). It is noted that the transition state analog galactosidase inhibitor is active against many galactosidases (Huber and Brockbank, 1987, actual active form is probably D-galactono-1,5-lactone) and that the jack bean β-galactosidase cleaves similarily other type 2 lactosamines such as e.g. Galβ4GlcNAcβ3Galβ4GlcNAcβ3Galβ4Glc, specific conditions are needed to cleave Galβ3GlcNAc-sequences or glycospingolipids. In Reaction 1, 25 nmol of Galβ4GlcNAcβ3Galβ4Glc is incubated with 100 mU of β-galactosidase from jack beans in-45 μl of 50 mM sodium citrate pH 4.0, at 37° C., for 8 h. Reaction 2 has the same composition, but contains additionally 55 mM D-galactono-1,4-lactone and it is incubated under the same condition for 8 h. The major products from Reaction 1 are Gal and GlcNAcβ3Galβ4Glc, while unreacted substrate is generally not observable by HPLC and mass spectrometric analysis, while Reaction 2 contains besides these typically more than 50% of uncleaved Galβ4GlcNAcβ3Galβ4Glc.

The test system of assay [2] is Helicobacter pylori. The experiment in a line: TLC bacterial overlay assay: binding of 35S-labeled Helicobacter pylori to glycosphingolipids. As to conditions: for Helicobacter pylori binding activity (in words): TLC overlay; for binding frequency for Helicobacter pylori: strain 032, total number of plates about 100; for binding compared between Helicobacter pylori strains: strains 17875, 002 and 032.

Assay [3] deals with T1, sialidase from Vibrio cholerae (Vibrio cholerae serotype O1, UniProt P0C6E9).
T1 construct: purchased Behringwerke, Marburg, Germany
Kind of assay: Inhibition of sialidase cleavage of Neu5Acα3Galβ4Glc. It counts as biochemical. The conditions noted are these: saturating concentrations.

In assay [4] the test system is Helicobacter pylori. As to conditions: rhesus monkey (Mysore et al., 2000); cited from earlier work.
In assay [5] the test system is Helicobacter pylori. The conditions noted are these: human gastrointestinal cell lines (Simon et al., 1999); cited from earlier work.
[6] abbreviates: dilution series, semi-quantitative TLC overlay.

T1 sequence (P0C6E9 25-781): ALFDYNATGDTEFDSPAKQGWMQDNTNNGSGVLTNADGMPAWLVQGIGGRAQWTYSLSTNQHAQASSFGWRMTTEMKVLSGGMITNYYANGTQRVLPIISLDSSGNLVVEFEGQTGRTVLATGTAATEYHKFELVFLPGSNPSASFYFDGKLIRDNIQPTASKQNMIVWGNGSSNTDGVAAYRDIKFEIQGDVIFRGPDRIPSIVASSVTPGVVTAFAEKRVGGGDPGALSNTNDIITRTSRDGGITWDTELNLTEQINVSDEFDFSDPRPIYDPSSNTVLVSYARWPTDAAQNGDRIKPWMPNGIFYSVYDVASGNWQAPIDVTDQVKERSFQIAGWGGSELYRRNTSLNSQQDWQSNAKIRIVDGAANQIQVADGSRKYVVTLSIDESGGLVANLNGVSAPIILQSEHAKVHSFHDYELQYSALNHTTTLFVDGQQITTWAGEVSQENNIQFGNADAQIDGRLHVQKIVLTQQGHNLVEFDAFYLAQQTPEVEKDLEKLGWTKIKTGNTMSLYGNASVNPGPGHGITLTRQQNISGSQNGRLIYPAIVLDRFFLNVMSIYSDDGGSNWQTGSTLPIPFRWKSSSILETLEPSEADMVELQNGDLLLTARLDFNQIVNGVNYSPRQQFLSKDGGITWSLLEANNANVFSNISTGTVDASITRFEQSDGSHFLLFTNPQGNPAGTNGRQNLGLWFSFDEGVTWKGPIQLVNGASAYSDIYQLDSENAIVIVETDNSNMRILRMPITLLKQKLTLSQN

Consider `O=C1O[C@@H]([C@H](O)CO)[C@H](O)[C@H]1O` [D-galactono-1,4-lactone], for which the “uncleaved Galβ4GlcNAcβ3Galβ4Glc” value in assay [1] is reported as “more than 50%”.
With `CCCCCCCCCCCCCCCCc1ccc(NC[C@H](O)[C@@H](O)[C@H](O[C@@H]2O[C@H](CO)[C@H](O)[C@H](O[C@@H]3O[C@H](CO)[C@@H](O[C@@H]4O[C@H](CO)[C@H](O)[C@H](O[C@@H]5O[C@H](CO)[C@@H](O)[C@H](O)[C@H]5NC(C)=O)[C@H]4O)[C@H](O)[C@H]3NC(C)=O)[C@H]2O)[C@H](O)CO)cc1` [GlcNAcβ3Galβ4GlcNAcβ3Galβ4Glc(red)-HDA], the “Helicobacter pylori binding activity (in words)” value with Helicobacter pylori [2] is “observable binding activity”.
On to `CC(=O)N[C@H]1[C@H]([C@H](O)[C@H](O)CO)OC(C(=O)O)=C[C@@H]1O` [Neu5Ac2en, 2,3-anhydro-2-deoxy-N-acetylneuraminic acid], for which the “inhibition of the enzyme (in words)” value in assay [3] is on record as “very effectively inhibited”.
On to `CC(=O)N[C@H]1[C@H]([C@H](O)[C@H](O)CO)O[C@@](O[C@H]2[C@@H](O)[C@@H](CO)O[C@@H](O[C@H]3[C@H](O)[C@@H](O)C(O)O[C@@H]3CO)[C@@H]2O)(C(=O)O)C[C@@H]1O` (stereo partly shown) [Sialyl-lactose], for which the “efficacy in animal model of the infection” value in the assay on Helicobacter pylori [4] is listed as “effective”. In the assay on Helicobacter pylori [5], the “inhibition of Helicobacter pylori binding to cell lines” value is given as “inhibits Helicobacter pylori binding”.
As to “Fucα2Galβ4GlcNAcβ3Galβ4Glcβ1Cer [No. 18]”, in the assay on Helicobacter pylori [2], the “Helicobacter pylori binding activity (in words)” value is on record as “absence of binding”.
For the compound “GalNAcα3(Fucα2)Galβ4GlcNAcβ3Galβ4Glcβ1Cer [No. 22]”, the “Helicobacter pylori binding activity (in words)” value in the assay with Helicobacter pylori [2] was “non-binding”.
As for “GalNAcβ3Galα3Galβ4GlcNAcβ3Galβ4Glcβ1Cer [No. 25]”, the “Helicobacter pylori binding activity (in words)” value with Helicobacter pylori [2] is on record as “non-binding”.
For “GalNAcβ3Galβ4GlcNAcβ3Galβ4Glcβ1Cer [No. 11]”, the “Helicobacter pylori binding activity (in words)” value in the assay on Helicobacter pylori [2] is on record as “binding was also found”.
“Galα3(Fucα2)Galβ4GlcNAcβ3Galβ4Glcβ1Cer [No. 23]”: the “Helicobacter pylori binding activity (in words)” value in the assay on Helicobacter pylori [2] is “non-binding”.
Regarding “Galα3Galβ4GlcNAcβ3Galβ4Glcβ1Cer [No. 13]”, the “Helicobacter pylori binding activity (in words)” value in the assay with Helicobacter pylori [2] was “binding-active”.
For the compound “Galα4Galβ4GlcNAcβ3Galβ4Glcβ1Cer [No. 15]”, the “Helicobacter pylori binding activity (in words)” value in the assay with Helicobacter pylori [2] was “absence of binding”.
For the compound “Galβ4GlcNAcβ3Galβ4GlcNAcβ3Galβ4Glcβ1Cer [No. 21]”, in the assay on Helicobacter pylori [2], the “Helicobacter pylori binding activity (in words)” value is “displayed binding activity”, the “binding frequency for Helicobacter pylori” value is recorded as about 90% and the “binding compared between Helicobacter pylori strains” value is “similar”. In the assay with Helicobacter pylori [2] (setting [6]), the “amount in which glycolipid bound Helicobacter pylori” value is ~0.2 nmoles of glycolipid/spot.
As to Galβ4GlcNAcβ3Galβ4Glcβ1Cer [No. 5], in the assay on Helicobacter pylori [2], the “Helicobacter pylori binding activity (in words)” value was “displayed binding activity” and the “binding compared between Helicobacter pylori strains” value is “similar”. Also, the “amount in which glycolipid bound Helicobacter pylori” value with Helicobacter pylori [2] (setting [6]) is reported as ~0.3 nmoles of glycolipid/spot.
Turning to Galβ4GlcβCer [diglycosylceramide], the “Helicobacter pylori binding activity (in words)” value in the assay on Helicobacter pylori [2] is “displayed binding activity”.
For the compound “GlcNAcβ3Galβ4GlcNAcβ3Galβ4Glcβ1Cer [No. 10]”, the “Helicobacter pylori binding activity (in words)” value with Helicobacter pylori [2] (listed as pentaglycosylceramide) is “strong activity; also recorded: displayed binding activity; also recorded: highly active”. In the assay with Helicobacter pylori [2] (dilution series, semi-quantitative TLC overlay, mean value from 7 experiments), the “amount giving a positive response on TLC plates” value was found to be 0.039 nmol/spot. Further, in the assay on Helicobacter pylori [2], the “binding frequency for Helicobacter pylori” value is reported as about 90% and the “binding compared between Helicobacter pylori strains” value is “similar”.
Take GlcNAcβ3Galβ4Glcβ1Cer [No. 1]: the “Helicobacter pylori binding activity (in words)” value in the assay on Helicobacter pylori [2] was “inactive”.
With “NeuAcα3GalNAcβ3Galβ4GlcNAcβ3Galβ4Glcβ1Cer [No. 24]”, the “Helicobacter pylori binding activity (in words)” value in the assay on Helicobacter pylori [2] is “non-binding”.
Consider “NeuGcα3Galβ4GlcNAcβ3Galβ4GlcNAcβ3Galβ4Glcβ1Cer [No. 27]”, for which, in the assay with Helicobacter pylori [2] (about 60 isolates tested), the “binding by Helicobacter pylori isolates” value is recorded as “bound by most Helicobacter pylori isolates”.
For “maltoheptaose(red)-HDA [maltoheptaose/red)-HDA, reference compound]”, the “Helicobacter pylori binding activity (in words)” value in the assay with Helicobacter pylori [2] was “totally inactive”.
